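The compound was tested at five concentrations on cells cultured in 96-well plates, with a 48-hour exposure period. Here, GI50 denotes the concentration required for 50% inhibition of growth. TGI: total growth inhibition.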
Columns and labels:
Assay in all cases: NCI anticancer screen, dose series, 48 h
[1] = tested on: SNB-75 CNS
[2] = tested on: HOP-62 NSCLC
[3] = tested on: T-47D breast
[4] = tested on: SW-620 colon
[5] = tested on: A498 renal
[6] = tested on: MDA-MB-435
[7] = tested on: SNB-19 CNS
[8] = tested on: NCI-H226 lung
[9] = tested on: MCF7 breast
[10] = tested on: RPMI-8226 leukemia
[11] = tested on: HCT-15 colon
[12] = tested on: CCRF-CEM leukemia
[13] = tested on: KM12 colon
[14] = tested on: COLO 205 colon
[15] = tested on: MDA-MB-231 breast
[16] = tested on: 786-0 renal
[17] = tested on: SK-OV-3 ovarian
[18] = tested on: CAKI-1 renal
[19] = tested on: SK-MEL-5 melanoma
[20] = tested on: A549 NSCLC
[21] = tested on: IGROV1 ovarian
[22] = tested on: LOX IMVI melanoma
[23] = tested on: MDA-N
[24] = tested on: SF-295 CNS
[25] = tested on: OVCAR-5 ovarian
[26] = tested on: TK-10 renal
[27] = tested on: NCI-H23 lung
[28] = tested on: HT29 colon
[29] = tested on: M14 melanoma
[30] = tested on: UACC-62 melanoma
[31] = tested on: NCI/ADR-RES ovarian
[32] = tested on: ACHN renal
[33] = tested on: SF-268 CNS
[34] = tested on: SK-MEL-28 melanoma
[35] = tested on: SN12C renal
[36] = tested on: UACC-257 melanoma
[37] = tested on: SK-MEL-2 melanoma
[38] = tested on: DU-145 prostate
[39] = tested on: MOLT-4 leukemia
[40] = tested on: PC-3 prostate
[41] = tested on: K-562 leukemia
[42] = tested on: EKVX NSCLC
[43] = tested on: U251 CNS
[44] = tested on: NCI-H460 lung
[45] = tested on: OVCAR-4 ovarian
[46] = tested on: HL-60(TB) leukemia
[47] = tested on: OVCAR-8 ovarian
[48] = tested on: UO-31 renal
[49] = tested on: HCC-2998 colon
[50] = tested on: SR leukemia
[51] = tested on: MALME-3M melanoma
[52] = tested on: HS 578T breast
[53] = tested on: HOP-92 NSCLC
[54] = tested on: RXF 393 renal
[55] = tested on: SF-539 CNS
[56] = tested on: OVCAR-3 ovarian
[57] = tested on: BT-549 breast
[58] = tested on: NCI-H522 lung
[59] = tested on: HCT-116 colon

O=C(CC(C(=O)c1ccsc1)c1cccs1)c1ccsc1 (centres undefined)
TGI [1]: > 100 µM | TGI [2]: > 100 µM | TGI [3]: 84.3 µM | TGI [4]: > 100 µM | TGI [5]: > 100 µM | TGI [6]: > 100 µM | TGI [7]: > 100 µM | TGI [8]: > 100 µM | TGI [9]: > 100 µM | TGI [10]: > 100 µM | TGI [11]: > 100 µM | TGI [12]: > 100 µM | TGI [13]: > 100 µM | TGI [14]: > 100 µM | TGI [15]: > 100 µM | TGI [16]: > 100 µM | TGI [17]: > 100 µM | TGI [18]: > 100 µM | TGI [19]: > 100 µM | TGI [20]: > 100 µM | TGI [21]: > 100 µM | TGI [22]: > 100 µM | TGI [23]: > 100 µM | TGI [24]: > 100 µM | TGI [25]: > 100 µM | TGI [26]: > 100 µM | TGI [27]: > 100 µM | TGI [28]: > 100 µM | TGI [29]: > 100 µM | TGI [30]: > 100 µM | TGI [31]: > 100 µM | TGI [32]: > 100 µM | TGI [33]: > 100 µM | TGI [34]: > 100 µM | TGI [35]: > 100 µM | TGI [36]: > 100 µM | TGI [37]: > 100 µM | TGI [38]: > 100 µM | TGI [39]: > 100 µM | TGI [40]: > 100 µM | TGI [41]: > 100 µM | TGI [42]: > 100 µM | TGI [43]: > 100 µM | TGI [44]: > 100 µM | TGI [45]: > 100 µM | TGI [46]: > 100 µM | TGI [47]: > 100 µM | TGI [48]: > 100 µM | TGI [49]: > 100 µM | TGI [50]: > 100 µM | TGI [51]: > 100 µM

O=C(/C=C/c1cccnc1)/C=C/c1cccnc1
GI50 [1]: 1.8 µM | TGI [1]: 7.33 µM | GI50 [2]: 6.27 µM | TGI [2]: 16.4 µM | GI50 [3]: 2.14 µM | TGI [3]: 6.87 µM | GI50 [4]: 0.724 µM | TGI [4]: 2.48 µM | GI50 [5]: 1.94 µM | TGI [5]: 4.66 µM | GI50 [6]: 1.78 µM | TGI [6]: 4.84 µM | GI50 [7]: 3.64 µM | TGI [7]: 11.6 µM | GI50 [8]: 5.1 µM | TGI [8]: 15.7 µM | GI50 [9]: 0.379 µM | TGI [9]: 1.84 µM | GI50 [52]: 3.44 µM | TGI [52]: 17.3 µM | GI50 [10]: 0.0732 µM | TGI [10]: 0.252 µM | GI50 [11]: 0.523 µM | TGI [11]: 1.98 µM | GI50 [12]: 0.199 µM | TGI [12]: 0.821 µM | GI50 [13]: 0.428 µM | TGI [13]: 1.58 µM | GI50 [14]: 1.35 µM | TGI [14]: 2.77 µM | GI50 [15]: 2.05 µM | TGI [15]: 5.8 µM | GI50 [16]: 2.1 µM | TGI [16]: 6.03 µM | GI50 [17]: 2.74 µM | TGI [17]: 6.78 µM | GI50 [18]: 4.28 µM | TGI [18]: 26.6 µM | GI50 [19]: 2.06 µM | TGI [19]: 4.7 µM | GI50 [20]: 2.32 µM | TGI [20]: 6.23 µM | GI50 [21]: 0.463 µM | TGI [21]: 1.82 µM | GI50 [22]: 1.13 µM | TGI [22]: 2.42 µM | GI50 [24]: 3.73 µM | TGI [24]: 13.1 µM | GI50 [53]: 2.33 µM | TGI [53]: 5.89 µM | GI50 [25]: 2.17 µM | TGI [25]: 5.03 µM | GI50 [26]: 3.11 µM | TGI [26]: 10.4 µM | GI50 [27]: 2.33 µM | TGI [27]: 6.7 µM | GI50 [54]: 0.608 µM | TGI [54]: 1.53 µM | GI50 [28]: 1.3 µM | TGI [28]: 3.13 µM | GI50 [55]: 1.75 µM | TGI [55]: 3.62 µM | GI50 [56]: 1.07 µM | TGI [56]: 2.33 µM | GI50 [29]: 1.84 µM | TGI [29]: 4.62 µM | GI50 [57]: 1.73 µM | TGI [57]: 4.62 µM | GI50 [30]: 1.91 µM | TGI [30]: 5.36 µM | GI50 [31]: 4.08 µM | TGI [31]: 30.6 µM | GI50 [32]: 2.19 µM | TGI [32]: 5.48 µM | GI50 [33]: 2.73 µM | TGI [33]: 7.77 µM | GI50 [34]: 1.95 µM | TGI [34]: 4.02 µM | GI50 [35]: 2.99 µM | TGI [35]: 12.7 µM | GI50 [36]: 7.63 µM | TGI [36]: 20.3 µM | GI50 [37]: 1.43 µM | TGI [37]: 3.58 µM | GI50 [38]: 2.57 µM | TGI [38]: 6.45 µM | GI50 [39]: 0.31 µM | GI50 [40]: 0.558 µM | TGI [40]: 3.01 µM | GI50 [41]: 0.383 µM | GI50 [42]: 4.74 µM | TGI [42]: 21.6 µM | GI50 [58]: 1.77 µM | TGI [58]: 4.69 µM | GI50 [43]: 0.547 µM | TGI [43]: 1.78 µM | GI50 [44]: 2.5 µM | TGI [44]: 7.29 µM | GI50 [45]: 2 µM | TGI [45]: 4.52 µM | GI50 [46]: 0.707 µM | GI50 [47]: 3.56 µM | TGI [47]: 12.8 µM | GI50 [48]: 0.562 µM | TGI [48]: 1.89 µM | GI50 [59]: 0.164 µM | TGI [59]: 0.321 µM | GI50 [49]: 0.846 µM | TGI [49]: 2.19 µM | GI50 [50]: 0.196 µM | TGI [50]: > 100 µM | GI50 [51]: 1.97 µM | TGI [51]: 5.31 µM

Source: PubChem BioAssay (NCI)
